For 10 compounds, IC50 results are on record in US9624224B2, “Inhibitors of Bruton's tyrosine kinase” (Pharmacyclics LLC, priority 2013, dated 2017).

T1 sequence (Q06187 whole entry): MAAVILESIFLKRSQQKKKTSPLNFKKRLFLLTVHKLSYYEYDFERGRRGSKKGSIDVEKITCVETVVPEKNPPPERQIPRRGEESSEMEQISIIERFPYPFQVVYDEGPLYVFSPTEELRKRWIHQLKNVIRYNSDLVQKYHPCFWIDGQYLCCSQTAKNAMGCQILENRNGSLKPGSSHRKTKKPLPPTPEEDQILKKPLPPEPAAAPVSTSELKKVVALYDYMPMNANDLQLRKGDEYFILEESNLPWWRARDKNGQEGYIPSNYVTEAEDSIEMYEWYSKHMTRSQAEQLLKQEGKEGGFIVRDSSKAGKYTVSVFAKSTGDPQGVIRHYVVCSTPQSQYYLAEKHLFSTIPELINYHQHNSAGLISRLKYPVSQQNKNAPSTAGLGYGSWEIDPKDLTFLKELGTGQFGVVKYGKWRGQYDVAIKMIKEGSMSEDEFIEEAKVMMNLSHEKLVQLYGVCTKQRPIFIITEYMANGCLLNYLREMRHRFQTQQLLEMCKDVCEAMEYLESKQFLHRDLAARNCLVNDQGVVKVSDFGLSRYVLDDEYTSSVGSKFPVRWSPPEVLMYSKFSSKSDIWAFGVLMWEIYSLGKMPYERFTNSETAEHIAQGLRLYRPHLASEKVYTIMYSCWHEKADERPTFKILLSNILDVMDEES

This experiment has as its target T1, BTK (Homo sapiens, UniProt Q06187).
T1 construct: purified from insect cells as a full-length construct containing a N-terminal 6×-His tag; His6 (N); made in house; host or cells: insect cells (baculovirus, Sf21)
Description: Btk in vitro inhibitory activity (TR-FRET, mobility shift or radiometric filter binding kinase assay). The class given is biochemical. The settings on record: determined using one of the methods outlined in Example 47a, 47b, and 47c. On the procedure:
Btk kinase activity is determined using a time-resolved fluorescence resonance energy transfer (TR-FRET) methodology. Measurements are performed in a reaction volume of 50 μL using 96-well assay plates. […] The reaction is quenched by the addition of 1.2 equivalents of EDTA (relative to divalent cation) in 25 μL of 1× Lance buffer (Perkin-Elmer). Streptavidin-APC (Perkin-Elmer) and Eu-labeled p-Tyr100 antibody (Perkin-Elmer) in 1× Lance buffer are added in a 25 μL volume to give final concentrations of 100 nM and 2.5 nM, respectively, and the mixture is allowed to incubate for one hour. The TR-FRET signal is measured on a multimode plate reader with an excitation wavelength (λEx) of 330 nm and detection wavelengths (λEm) of 615 and 665 nm. Activity is determined by the ratio of the fluorescence at 665 nm to that at 615 nm. For each compound, enzyme activity is measured at various concentrations of compound. Negative control reactions are performed in the absence of inhibitor in replicates of six, and two no-enzyme controls are used to determine baseline fluorescence levels. Inhibition constants, Ki(app), ware obtained using the program BatchKi (Kuzmic et al. (2000), Anal. Biochem. 286:45-50). IC50s are obtained according to the equation: IC50={Ki(app)/(1+[ATP]/Km^ATP)}+[E]total/2;
For all kinases, [ATP]=Km^ATP, [Btk]total=0.5 nM and [Lck]total=6 nM.
Kinase activity is measured in vitro using electrophoretic mobility shift assay. The kinase reactions are assembled in a total volume of 25 μL in 384 well plates. […] The reaction is incubated for one hour and is quenched by the addition of 45 μL of termination buffer (100 mM HEPES, pH7.5, 0.01% Triton X-100, 30 mM EDTA). The terminated reactions are analyzed using 12 channel LabChip® 3000 microfluidic detection instrument (Caliper Life Sciences). The enzymatic phosphorylation of the peptide results in a change in net charge, enabling electrophoretic separation of product from substrate peptide. As substrate and product peptides are separated, two peaks of fluorescence are observed. Change in the relative fluorescence intensity of the substrate and product peaks is the parameter measured, reflecting enzyme activity. In the presence of an inhibitor, the ratio between product and substrate is altered: the signal of the product decreases, while the signal of the substrate increases.
Activity in each sample is determined as the product to sum ratio (PSR): P/(S+P), where P is the peak height of the product peptide and S is the peak height of the substrate peptide. For each compound, enzyme activity is measured at various concentrations (12 concentrations of compound spaced by 3× dilution intervals). Negative control samples (0%-inhibition in the absence of inhibitor) and positive control samples (100%-inhibition, in the presence of 20 mM EDTA) are assembled in replicates of four and are used to calculate %-inhibition values for each inhibitor at each concentration. Percent inhibition (Pinh) is determined using following equation: Pinh=(PSR0%−PSRinh)/(PSR0%−PSR100%)*100,
where PSRmh is the product sum ratio in the presence of inhibitor, PSR0% is the average product sum ration in the absence of inhibitor and PSR100% is the average product sum ratio in 100%-inhibition control samples;
The IC50 values of inhibitors are determined by 4 parameter sigmoidal dose-response model fitting of the inhibition curves (Pinh versus inhibitor concentration) using XLfit 4 software.
Human Btk kinase (Genbank accession # NP_000052) was purified from insect cells as a full-length construct containing a N-terminal 6×-His tag. Btk kinase activity was determined using a radiometric filter binding assay. Measurements are performed in a low μL reaction volume 384-well assay plates. […]
What is called IC50 is the point on the concentration scale where inhibition reaches its midpoint. For the compound `CCCc1ccnc(NC(=O)c2ccc(-c3nn([C@@H]4CCN(C(=O)/C=C/CN(C)C)C4)c4ncnc(N)c34)cc2)c1` [Example 33, (R,E)-4-(4-amino-1-(1-(4-(dimethylamino)but-2-enoyl)pyrrolidin-3-yl)-1H-pyrazolo[3,4-d]pyrimidin-3-yl)-N-(4-propylpyridin-2-yl)benzamide], the half-inhibitory concentration (IC50) was less than 1 nM.

In the case of `CN(C/C=C/C(=O)N1CCC[C@@H](n2nc(-c3ccc(C(=O)Nc4ccccn4)cc3)c3c(N)ncnc32)C1)C1CC1` [Example 34, (R,E)-4-(4-amino-1-(1-(4-(cyclopropyl(methyl)amino)but-2-enoyl)piperidin-3-yl)-1H-pyrazolo[3,4-d]pyrimidin-3-yl)-N-(pyridin-2-yl)benzamide], the IC50 is less than 100 nM.

`Cc1ccnc(NC(=O)c2ccc(-c3nn([C@@H]4CCCN(C(=O)/C=C/CN(C)C5CC5)C4)c4ncnc(N)c34)cc2)c1` [Example 35, (R,E)-4-(4-amino-1-(1-(4-(cyclopropyl(methyl)amino)but-2-enoyl)piperidin-3-yl)-1H-pyrazolo[3,4-d]pyrimidin-3-yl)-N-(4-methylpyridin-2-yl)benzamide]: the IC50 was less than 1 nM.

As for `CN(C/C=C/C(=O)N1CCC[C@@H](n2nc(-c3ccc(C(=O)Nc4cc(C(F)(F)F)ccn4)cc3)c3c(N)ncnc32)C1)C1CC1` [Example 36, (R,E)-4-(4-amino-1-(1-(4-(cyclopropyl(methyl)amino)but-2-enoyl)piperidin-3-yl)-1H-pyrazolo[3,4-d]pyrimidin-3-yl)-N-(4-(trifluoromethyl)pyridin-2-yl)benzamide], the IC50 is less than 1 nM.

For `CCCc1ccnc(NC(=O)c2ccc(-c3nn([C@@H]4CCCN(C(=O)/C=C/CN(C)C5CC5)C4)c4ncnc(N)c34)cc2)c1` [Example 37, (R,E)-4-(4-amino-1-(1-(4-(cyclopropyl(methyl)amino)but-2-enoyl)piperidin-3-yl)-1H-pyrazolo[3,4-d]pyrimidin-3-yl)-N-(4-propylpyridin-2-yl)benzamide], the IC50 was less than 1 nM.

For `CN(C/C=C/C(=O)N1CCC[C@@H](n2nc(-c3ccc(C(=O)Nc4cc(C#N)ccn4)cc3)c3c(N)ncnc32)C1)C1CC1` [Example 38, (R,E)-4-(4-amino-1-(1-(4-(cyclopropyl(methyl)amino)but-2-enoyl)piperidin-3-yl)-1H-pyrazolo[3,4-d]pyrimidin-3-yl)-N-(4-cyanopyridin-2-yl)benzamide], the IC50 was less than 1 nM.

For the compound `CC(C)c1ccnc(NC(=O)c2ccc(-c3nn([C@@H]4CCCN(C(=O)/C=C/CN(C)C5CC5)C4)c4ncnc(N)c34)cc2)c1` [Example 39, (R,E)-4-(4-amino-1-(1-(4-(cyclopropyl(methyl)amino)but-2-enoyl)piperidin-3-yl)-1H-pyrazolo[3,4-d]pyrimidin-3-yl)-N-(4-isopropylpyridin-2-yl)benzamide], the IC50 is less than 100 nM.

As for `CN(C)C/C=C/C(=O)N1CCC[C@@H](n2nc(-c3ccc(C(=O)Nc4ccccn4)cc3)c3c(N)ncnc32)C1` [Example 40, (R,E)-4-(4-amino-1-(1-(4-(dimethylamino)but-2-enoyl)piperidin-3-yl)-1H-pyrazolo[3,4-d]pyrimidin-3-yl)-N-(pyridin-2-yl)benzamide], the IC50 is less than 1 nM.

On to `Cc1ccnc(NC(=O)c2ccc(-c3nn([C@@H]4CCCN(C(=O)/C=C/CN(C)C)C4)c4ncnc(N)c34)cc2)c1` [Example 41, (R,E)-4-(4-amino-1-(1-(4-(dimethylamino)but-2-enoyl)piperidin-3-yl)-1H-pyrazolo[3,4-d]pyrimidin-3-yl)-N-(4-methylpyridin-2-yl)benzamide], for which the IC50 is less than 1 nM.

`CN(C)C/C=C/C(=O)N1CCC[C@@H](n2nc(-c3ccc(C(=O)Nc4cc(C(F)(F)F)ccn4)cc3)c3c(N)ncnc32)C1` [Example 42, (R,E)-4-(4-amino-1-(1-(4-(dimethylamino)but-2-enoyl)piperidin-3-yl)-1H-pyrazolo[3,4-d]pyrimidin-3-yl)-N-(4-(trifluoromethyl)pyridin-2-yl)benzamide]: the IC50 is less than 1 nM.
